Assay results published in patent US20030232851A1, “Viral treatment” (The Procter & Gamble Company, priority 1999, published 2003).
Converted amounts (≈) assume the structure as drawn. “And” between values parts separate entries of the source, which are not always exact repeats. Equal values may be shown once.

Key:
Assay type in all cases: cell-based
[1] = tested on: HHV8 cell line, TPA-induced BCBL-1 cells; test: Kaposi's Sarcoma (HHV8) in vitro test, DNA copy number
Protocol: (§1) The DNA copy number and the toxicity value were measured and compared with Cidofovir.

TPA-induced BCBL-1 cells = test: Kaposi's Sarcoma test: toxicity values; parameters: Toxicity Values, samples 1-3 / Toxicity Values, average: scale not given here
Protocol: as §1

Curvularia lunata = test: Anti-fungal activity (NCCLS M-27A based), Curvularia lunata; conditions: growth inhibited or reduced at least 90%; for MIC: Curvularia lunata
Protocol: (§2) It was active against cryptococcus neoformans and curvularai lunata. The cidal activity for the C. neoformans is high enough that it is clear […] against this yeast. This test was conducted using a method based upon NCCLS reference method M-27A published in 1997. Solvent, medium and growth controls were set-up with the tests. Once these were read to validate the test performance, the QC fungi were read to insure they had expected results. These steps validated the test system. DMSO was used as a drug-chemical solvent. […] The 90% cut-off is necessary for azoles, which are static and not cidal. The FMC or cidal level was determined by sub-culturing a sample from each tube showing no growth.

Cryptococcus neoformans = test: Anti-fungal activity (NCCLS M-27A based), Cryptococcus neoformans; conditions: for MFC / MIC: Cryptococcus neoformans
Protocol: as §2

[2] = growth inhibited or reduced at least 90%

Q: What does the source list for `Nc1ccn(C[C@@H](CO)OCP(=O)(O)O)c(=O)n1` [Cidofovir, reference compound]?
A: DNA Copy Number, % virus control ([1]; 0.08 μM): 95.3%; DNA Copy Number, average ([1]; 0.08 μM): 8478.0 per 3 μl; DNA Copy Number, samples 1-3 ([1]; 0.08 μM): 8485.1 per 3 μl and 7948.1 per 3 μl and 9000.8 per 3 μl; DNA Copy Number, % virus control ([1]; 0.25 μM): 75.0%; DNA Copy Number, average ([1]; 0.25 μM): 6666.9 per 3 μl; DNA Copy Number, samples 1-3 ([1]; 0.25 μM): 6668.9 per 3 μl and 6336.3 per 3 μl and 6995.5 per 3 μl; DNA Copy Number, % virus control ([1]; 0.8 μM): 57.5%; DNA Copy Number, average ([1]; 0.8 μM): 5108.6 per 3 μl; DNA Copy Number, % virus control ([1]; 2.5 μM): 14.3%; DNA Copy Number, average ([1]; 2.5 μM): 1276.9 per 3 μl; DNA Copy Number, samples 1-3 ([1]; 2.5 μM): 1329.8 per 3 μl and 1198.3 per 3 μl and 1275.7 per 3 μl; DNA Copy Number, % virus control ([1]; 8 μM): 0.0%; DNA Copy Number, average ([1]; 8 μM): 3.0 per 3 μl; DNA Copy Number, % virus control ([1]; 25 μM): 0.0%; DNA Copy Number, average ([1]; 25 μM): 0.0 per 3 μl; DNA Copy Number, samples 1-3 ([1]; 25 μM): 0 per 3 μl and 0.0 per 3 μl; IC50 ([1]; Human gammaherpesvirus 8, BCBL1): 1100 nM; Toxicity Values, % cell control (TPA-induced BCBL-1 cells; 0.08 μM): 83.9%; Toxicity Values, average (TPA-induced BCBL-1 cells; 0.08 μM): 0.814; Toxicity Values, samples 1-3 (TPA-induced BCBL-1 cells; 0.08 μM): 0.864 and 0.797 and 0.780; Toxicity Values, % cell control (TPA-induced BCBL-1 cells; 0.25 μM): 90.1%; Toxicity Values, average (TPA-induced BCBL-1 cells; 0.25 μM): 0.874; Toxicity Values, samples 1-3 (TPA-induced BCBL-1 cells; 0.25 μM): 0.867 and 0.819 and 0.934; Toxicity Values, % cell control (TPA-induced BCBL-1 cells; 0.8 μM): 82.8%; Toxicity Values, average (TPA-induced BCBL-1 cells; 0.8 μM): 0.803; Toxicity Values, samples 1-3 (TPA-induced BCBL-1 cells; 0.8 μM): 0.824 and 0.770 and 0.814; Toxicity Values, % cell control (TPA-induced BCBL-1 cells; 2.5 μM): 75.0%; Toxicity Values, average (TPA-induced BCBL-1 cells; 2.5 μM): 0.728; Toxicity Values, samples 1-3 (TPA-induced BCBL-1 cells; 2.5 μM): 0.794 and 0.684 and 0.704; Toxicity Values, % cell control (TPA-induced BCBL-1 cells; 8 μM): 69.3%; Toxicity Values, average (TPA-induced BCBL-1 cells; 8 μM): 0.672; Toxicity Values, samples 1-3 (TPA-induced BCBL-1 cells; 8 μM): 0.639 and 0.700 and 0.677; Toxicity Values, % cell control (TPA-induced BCBL-1 cells; 25 μM): 4403%; Toxicity Values, average (TPA-induced BCBL-1 cells; 25 μM): 0.430; Toxicity Values, samples 1-3 (TPA-induced BCBL-1 cells; 25 μM): 0.443 and 0.398 and 0.447

Q: Which MIC (Curvularia lunata) does the source give for `CCC(C)n1ncn(-c2ccc(N3CCN(c4ccc(OCC5COC(Cn6cncn6)(c6ccc(Cl)cc6Cl)O5)cc4)CC3)cc2)c1=O` (centres unmarked) [Itra, Itraconazole] here?
A: Its MIC is 0.03 µg/mL (≈ 0.0425 µM).

Q: What about the MFC (Cryptococcus neoformans; cidal level) of the same molecule?
A: The MFC was over 32 µg/mL.

Q: What about the MIC (Cryptococcus neoformans; [2]) of the same molecule?
A: Its MIC is 0.03 µg/mL (≈ 0.0425 µM).

Q: What does the source list for `c1ccc2[nH]c(-c3cscn3)nc2c1` [Thia, thiabendazole]?
A: MIC (Curvularia lunata): ≥ 32 µg/mL; MFC (Cryptococcus neoformans; cidal level): > 32 µg/mL; MIC (Cryptococcus neoformans; [2]): 16 µg/mL (≈ 79.5 µM)

Q: For “methyl 1,2- benzimidazole carbamate or benomyl”, which MIC data (Curvularia lunata) is on record?
A: Its MIC data is 0.06 µg/mL.

Q: What about the MFC data (Cryptococcus neoformans; cidal level) of the same molecule?
A: Its MFC data is over 32 µg/mL.

Q: And the MIC data (Cryptococcus neoformans; [2])?
A: The MIC data was 8 µg/mL.
